Test results published in patent EP4752152A1, “STEROID COMPOUND, AND PREPARATION METHOD THEREFOR AND USE THEREOF” (Cholesgen (Shanghai) Co.Ltd., priority 2023, dated 2025).

Each compound was assayed on SREBP pathway (assay: SREBP luciferase reporter gene system (SRE-luciferase assay)). Conditions: Homo sapiens, Huh-7, 16 h, Huh-7/SRE-luc cells, sterol-deficient medium, 0.01-10 µM.
Assay type: cell-based, human
Protocol: Huh-7/SRE-luc cells were incubated in sterol-deficient medium (5% lipoprotein deficient serum, 2 µM lovastatin, 10 µM mevalonic acid) with corresponding concentrations of compounds for 16 hours. The Huh-7/SRE-luc cells were human hepatoma cell line Huh-7 stably expressing LDLR promotor-luciferase and green fluorescent protein (GFP). These cells were obtained by transfecting Huh-7 with pLDLR-promotor-luciferase and pEGFP-N1 plasmids, followed by screening under G418 antibiotic selection pressure. The Huh-7 cells were purchased from ATCC, the pLDLR-promotor-luciferase plasmid was obtained by molecular cloning methods, and the pEGFP-N1 plasmid was purchased from Addgene.
After compound treatment, the cells were lysed with lysis buffer (E397A, Promega). After the addition of luciferase substrate (E1500, Promega), the activity of SRE-driven luciferase was measured using a BioTek Synergy HTX microplate reader (including but not limited to this type of instrument). The fluorescence intensity of green fluorescent protein (EGFP) was also measured using the above BioTek microplate reader (including but not limited to this type of instrument) and served as an internal control. The ratio of SRE-driven luciferase activity divided by the fluorescence intensity of green fluorescent protein was used as an indicator of SREBP pathway activity. The test data for each test compound were analyzed using Prism software (with the DMSO-treated group as the reference to calculate the compound inhibition rate, fitted using the Prism log(inhibitor) vs. response--Variable slope (four-parameter) model, calculation formula: Y = Bottom + (Top - Bottom)/(1 + 10^((LogIC50 - X) × HillSlope))), to obtain the IC50 parameters of the compounds.
Using the method described in 1.1, the inhibitory effect of the compounds of the present disclosure on the SREBP pathway was tested. The concentration gradient for each compound was designed as 0.01, 0.03, 0.1, 0.3, 1.0, 3.0, and 10 µM, with the vehicle DMSO as the control.
Compound `COc1nc(F)ccc1[C@@H](O)CCC[C@@H](C)[C@H]1CC[C@H]2[C@H]3[C@H](CC[C@]12C)[C@@]1(C)CC[C@H](O)C[C@@H]1CC3(F)F` [Compound 312, (1R,3aS,3bR,5aR,7S,9aS,9bS,11aR)-4,4-difluoro-1-[(2R,6S)-6-(6-fluoro-2-methoxypyridin-3-yl)-6-hydroxyhexan-2-yl]-9a,11a-dimethylhexadecahydro-1H-cyclopenta[1,2-a]phenanthren-7-ol] has an IC50 of 0.276 µM.
Work on `C[C@H](CCCC(O)c1cnc2c(c1)OC(F)(F)O2)[C@H]1CC[C@H]2[C@H]3[C@H](CC[C@]12C)[C@@]1(C)CC[C@H](O)[C@H](O)[C@@H]1CC3(F)F` (stereo partly drawn) [Compound 284, (1R,3aS,3bS,5aR,6R,7 S,9aR,9bS,11aR)-1-[(2R)-6-(2,2-Difluoro[1,3]dioxolo[4,5-b]pyridin-6-yl)-6-hydroxyhexan-2-yl]-4,4-difluoro-9a,11a-dimethylhexadecahydro-1H-cyclopenta[1,2-a]phenanthrene-6,7-diol] yielded an IC50 of 0.309 µM.
For `COc1cccc(OC)c1C(O)CCC[C@@H](C)[C@H]1CC[C@H]2C3=C(F)C[C@H]4[C@@H](O)[C@@H](O)CC[C@]4(C)[C@H]3CC[C@]12C` (stereo partly drawn) [Compound 115, (1R,3aR,5aR,6R,7S,9aR,9bR,11aR)-1-[(2R)-6-(2,6-dimethoxyphenyl)-6-hydroxyhexan-2-yl]-4-fluoro-9a,11a-dimethyl-2,3,3a,5,5a,6,7,8,9,9a,9b,10,11,11a-tetradecahydro-1H-cyclopenta[1,2-a]phenanthrene-6,7-diol], the IC50 was 0.613 µM.
`C[C@H](CCC(=O)N(C)c1ccccc1F)[C@H]1CC[C@H]2C3=C(F)C[C@H]4[C@@H](O)[C@@H](O)CC[C@]4(C)[C@H]3CC[C@]12C` [Compound 96, (4R)-4-[(1R,3aR,5aR,6R,7S,9aR,9bR,11aR)-4-fluoro-6,7-dihydroxy-9a,11a-dimethyl-2,3,3a,5,5a,6,7,8,9,9a,9b,10,11,11a-tetradecahydro-1H-cyclopenta[1,2-a]phenanthren-1-yl]-N-(2-fluorophenyl)-N-methylpentanamide] gave an IC50 of 0.34 µM.
For `COc1cc(Cl)ccc1[C@H](O)CCC[C@@H](C)[C@H]1CC[C@H]2C3=C(F)C[C@H]4[C@@H](O)[C@@H](O)CC[C@]4(C)[C@H]3CC[C@]12C` [Compound 110, (1R,3aR,5aR,6R,7S,9aR,9bR,11aR)-1-[(2R,6R)-6-(4-chloro-2-methoxyphenyl)-6-hydroxyhexan-2-yl]-4-fluoro-9a,11a-dimethyl-2,3,3a,5,5a,6,7,8,9,9a,9b,10,11,11a-tetradecahydro-1H-cyclopenta[1,2-a]phenanthrene-6,7-diol], the IC50 was 1.13 µM.
In the case of `C[C@H](CCCC(O)c1cccc2c1nnn2C)[C@H]1CC[C@H]2[C@H]3[C@H](CC[C@]12C)[C@@]1(C)CC[C@H](O)[C@H](O)[C@@H]1CC3(F)F` (single isomer, unassigned) [Compound 290, (1R,3aS,3bS,5aR,6R,7S,9aR,9bS,11aR)-4,4-difluoro-1-[(2R,6S)-6-hydroxy-6-(1-methylbenzo[d][1,2,3]triazol-4-yl)hexan-2-yl]-9a,11a-dimethylhexadecahydro-1H-cyclopenta[1,2-a]phenanthrene-6,7-diol or (1R,3aS,3bS,5aR,6R,7S,9aR,9bS,11aR)-4,4-difluoro-1-[(2R,6R)-6-hydroxy-6-(1-methylbenzo[d][1,2,3]triazol-4-yl)hexan-2-yl]-9a,11a-dimethylhexadecahydro-1H-cyclopenta[1,2-a]phenanthrene-6,7-diol], the IC50 is reported as 0.137 µM.
`COc1cncc(F)c1C(O)CCC[C@@H](C)[C@H]1CC[C@H]2[C@H]3[C@H](CC[C@]12C)[C@@]1(C)CC[C@H](O)[C@H](O)[C@@H]1CC3(F)F` (single isomer, unassigned) [Compound 251, (1R,3aS,3bS,5aR,6R,7S,9aR,9bS,11aR)-4,4-difluoro-1-[(2R,6S)-6-(3-fluoro-5-methoxypyridin-4-yl)-6-hydroxyhexan-2-yl]-9a,11a-dimethylhexadecahydro-1H-cyclopenta[1,2-a]phenanthrene-6,7-diol or (1R,3aS,3bS,5aR,6R,7S,9aR,9bS,11aR)-4,4-difluoro-1-[(2R,6R)-6-(3-fluoro-5-methoxypyridin-4-yl)-6-hydroxyhexan-2-yl]-9a,11a-dimethylhexadecahydro-1H-cyclopenta[1,2-a]phenanthrene-6,7-diol] gave an IC50 of 0.042 µM.
Work on `COc1cc(F)ccc1/C(CCC[C@@H](C)[C@H]1CC[C@H]2[C@H]3[C@H](CC[C@]12C)[C@@]1(C)CC[C@H](O)[C@H](O)[C@@H]1CC3(F)F)=N/O` [Compound 157, [(1E,5R)-5-[(1R,3aS,3bS,5aR,6R,7S,9aR,9bS,11aR)-4,4-difluoro-6,7-dihydroxy-9a,11a-dimethylhexadecahydro-1H-cyclopenta[1,2-a]phenanthren-1-yl]-1-(4-fluoro-2-methoxyphenyl)hexylidene]hydroxylamine] yielded an IC50 of 0.053 µM.
Work on `C[C@H](CCCC(O)c1c(F)ccnc1F)[C@H]1CC[C@H]2[C@H]3[C@H](CC[C@]12C)[C@@]1(C)CC[C@H](O)[C@H](O)[C@@H]1CC3(F)F` (stereo partly drawn) [Compound 146, (1R,3aS,3bS,5aR,6R,7S,9aR,9bS,11aR)-1-[(2R)-6-(2,4-difluoropyridin-3-yl)-6-hydroxyhexan-2-yl]-4,4-difluoro-9a,11a-dimethylhexadecahydro-1H-cyclopenta[1,2-a]phenanthrene-6,7-diol] yielded an IC50 of 0.16 µM.
For `C[C@H](CCCC(O)c1cccc2nnn(C)c12)[C@H]1CC[C@H]2[C@H]3[C@H](CC[C@]12C)[C@@]1(C)CC[C@H](O)[C@H](O)[C@@H]1CC3(F)F` (stereo partly drawn) [Compound 271, (1R,3aS,3bS,5aR,6R,7 S,9aR,9bS,11aR)-4,4-Difluoro-1-[(2R)-6-hydroxy-6-(3-methylbenzo[d][1,2,3]triazol-4-yl)hexan-2-yl]-9a,11a-dimethylhexadecahyd ro-1H-cyclopenta[1,2-a]phenanthrene-6,7-diol], the IC50 was 0.207 µM.
In the case of `COc1ccnc(C[C@@H](O)CCC[C@@H](C)[C@H]2CC[C@H]3[C@H]4[C@H](CC[C@]23C)[C@@]2(C)CC[C@H](O)[C@H](O)[C@@H]2CC4(F)F)c1` (stereo in doubt) [Compound 304, (1R,3aS,3bS,5aR,6R,7S,9aR,9bS,11aR)-4,4-difluoro-1-[(2R,6S)-6-hydroxy-7-(4-methoxypyridin-2-yl)heptan-2-yl]-9a,11a-dimethylhexadecahydro-1H-cyclopenta[1,2-a]phenanthrene-6,7-diol], the IC50 is reported as 0.243 µM.
With `COc1cccc(F)c1[C@H](O)CCC[C@@H](C)[C@H]1CC[C@H]2[C@H]3[C@H](CC[C@]12C)[C@@]1(C)CC[C@H](O)C[C@@H]1CC3(F)F` (single isomer, unassigned) [Compound 315] the IC50 was 0.125 µM.
With `COc1c(F)cccc1C(O)CCC[C@@H](C)[C@H]1CC[C@H]2C3=C(F)C[C@H]4[C@@H](O)[C@@H](O)CC[C@]4(C)[C@H]3CC[C@]12C` (stereo partly drawn) [Compound 48, (1R,3aR,5aR,6R,7S,9aR,9bR,11aR)-4-fluoro-1-[(2R)-6-(3-fluoro-2-methoxyphenyl)-6-hydroxyhexan-2-yl]-9a,11a-dimethyl-2,3,3a,5,5a,6,7,8,9,9a,9b,10,11,11a-tetradecahydro-1H-cyclopenta[1,2-a]phenanthrene-6,7-diol] the IC50 was 0.203 µM.

Same assay, conditions: Huh-7/SRE-luc cells, sterol-deficient medium, 16 hours, 0.01-10 µM
With `C[C@H](CCCC(O)c1cnc2c(c1)OC(F)(F)O2)[C@H]1CC[C@H]2[C@H]3[C@H](CC[C@]12C)[C@@]1(C)CC[C@H](O)[C@H](O)[C@@H]1CC3(F)F` (single isomer, unassigned) [Compound 286] the IC50 was 0.26 µM.
`C[C@H](CCCC(O)c1cccc2cn[nH]c12)[C@H]1CC[C@H]2[C@H]3[C@H](CC[C@]12C)[C@@]1(C)CC[C@H](O)[C@H](O)[C@@H]1CC3(F)F` (single isomer, unassigned) [Compound 268, (1R,3aS,3bS,5aR,6R,7S,9aR,9bS,11aR)-4,4-difluoro-1-[(2R,6S)-6-hydroxy-6-(1H-indazol-7-yl)hexan-2-yl]-9a,11a-dimethylhexadecahydro-1H-cyclopenta[1,2-a]phenanthrene-6,7-diol or (1R,3aS,3bS,5aR,6R,7S,9aR,9bS,11aR)-4,4-difluoro-1-[(2R,6R)-6-hydroxy-6-(1H-indazol-7-yl)hexan-2-yl]-9a,11a-dimethylhexadecahydro-1H-cyclopenta[1,2-a]phenanthrene-6,7-diol] showed an IC50 of 0.141 µM.
With `C[C@H](CCC[C@@H](O)c1cc2ccccc2o1)[C@H]1CC[C@H]2[C@H]3[C@H](CC[C@]12C)[C@@]1(C)CC[C@H](O)[C@H](O)[C@@H]1CC3(F)F` [Compound 322, (1R,3aS,3bS,5aR,6R,7S,9aR,9bS,11aR)-1-[(2R,6R)-6-(1-benzofuran-2-yl)-6-hydroxyhexan-2-yl]-4,4-difluoro-9a,11a-dimethylhexadecahydro-1H-cyclopenta[1,2-a]phenanthrene-6,7-diol] the IC50 was 0.339 µM.
